The values that follow come from ChEMBL document CHEMBL3286232, “The enone motif of (+)-grandifloracin is not essential for 'anti-austerity' antiproliferative activity” (Bioorg Med Chem Lett, 2014).

Molecules are shown by their SMILES.

Test [1] concerns HT-29. Nature of the test: Anti-austerity antiproliferative activity against human HT-29 cells after 72 hrs in presence of 10 % serum. Type of test: cell-based. The settings on record: HT-29, 72 h.
Test [2] is described as follows: Anti-austerity antiproliferative activity against human PANC1 cells after 72 hrs in presence of 10 % serum. Type of test: cell-based. The settings on record: PANC-1, 72 h.
Test [3] relates to HT-29. Nature of the test: Anti-austerity antiproliferative activity against nutrient-deprived human HT-29 cells after 72 hrs in presence of 0.5% serum. The class given is functional, cell-based. The note with it: HT-29, 72 h.
Test [4] in a line: Anti-austerity antiproliferative activity against nutrient-deprived human PANC1 cells after 72 hrs in presence of 0.5% serum. The class given is functional, cell-based. The settings on record: PANC-1, 72 h.

In general, IC50 refers to the midpoint of a concentration-inhibition curve. Take `O=C(OC[C@@]1(O)C(=O)C=C[C@H]2[C@@H]1[C@H]1C=C[C@@H]2C(=O)[C@]1(O)COC(=O)c1ccccc1)c1ccccc1`: the IC50 in test [1] is 109 µM; in test [2], 123 µM; in test [3] it was > 500 µM; in test [4] it was > 500 µM.

Turning to `O=C(OC[C@@]1(O)C(=O)CC[C@H]2[C@@H]1[C@H]1CC[C@@H]2C(=O)[C@]1(O)COC(=O)c1ccccc1)c1ccccc1`, the IC50 turned out to be 39 µM in test [1], 81 µM in test [2], 27 µM in test [3] and 86 µM in test [4].

`O=C(OC[C@@]1(O)C(=O)C=C[C@H]2[C@@H]1[C@H]1C=C[C@@H]2C(=O)[C@]1(O)COC(=O)c1ccc(Cl)cc1)c1ccc(Cl)cc1`: the IC50 in test [1] turned out to be 39 µM; in test [2] it was 84 µM; in test [3], 18 µM; in test [4], 77 µM.

`COc1ccc(C(=O)OC[C@@]2(O)C(=O)C=C[C@H]3[C@@H]2[C@H]2C=C[C@@H]3C(=O)[C@]2(O)COC(=O)c2ccc(OC)cc2)cc1`: the IC50 in test [1] was found to be 35 µM; in test [2], 78 µM; in test [3] it was 22 µM; in test [4] it was 52 µM.
